Reference: the kinase profiling compilation of Christmann-Franck et al. (2016)
“And” between values parts separate entries of the source, which are not always exact repeats. Identical values can stand only once.

Experiments:
Experiment in all cases: Caliper, Mobility shift assay off-chip
SYK (human) = SYK (human) (UniProt P43405)
NEK4 (human) = NEK4 (human) (UniProt P51957)
LYN (human) = LYN (human) (UniProt P07948)
FLT4 (human) = FLT4 (human) (UniProt P35916)
CDK3 (human) = CDK3 (human) (UniProt Q00526)
DCLK2 (human) = DCLK2 (human) (UniProt Q8N568)
LTK (human) = LTK (human) (UniProt P29376)
PBK (human) = PBK (human) (UniProt Q96KB5)
CSNK1D (human) = CSNK1D (human) (UniProt P48730)
TXK (human) = TXK (human) (UniProt P42681)
SIK2 (human) = SIK2 (human) (UniProt Q9H0K1)
NEK2 (human) = NEK2 (human) (UniProt P51955)
JAK2 JH1 JH2 (human) = JAK2 JH1 JH2 (human) (UniProt O60674)
CLK2 (human) = CLK2 (human) (UniProt P49760)
HIPK1 (human) = HIPK1 (human) (UniProt Q86Z02)
CSNK1G2 (human) = CSNK1G2 (human) (UniProt P78368)
CSF1R (human) = CSF1R (human) (UniProt P07333)
CSNK2A2 (human) = CSNK2A2 (human) (UniProt P19784)
CDK6 (human) = CDK6 (human) (UniProt Q00534)
SGK3 (human) = SGK3 (human) (UniProt Q96BR1)
IKBKE (human) = IKBKE (human) (UniProt Q14164)
PTK2 (human) = PTK2 (human) (UniProt Q05397)
DDR2 (human) = DDR2 (human) (UniProt Q16832)
TNK2 (human) = TNK2 (human) (UniProt Q07912)
EPHA7 (human) = EPHA7 (human) (UniProt Q15375)
CSNK2A1 (human) = CSNK2A1 (human) (UniProt P68400)
MUSK (human) = MUSK (human) (UniProt O15146)
HIPK4 (human) = HIPK4 (human) (UniProt Q8NE63)
PTK6 (human) = PTK6 (human) (UniProt Q13882)
NEK9 (human) = NEK9 (human) (UniProt Q8TD19)
RPS6KA4 KD1 KD2 (human) = RPS6KA4 KD1 KD2 (human) (UniProt O75676)
RPS6KA5 KD1 KD2 (human) = RPS6KA5 KD1 KD2 (human) (UniProt O75582)
PIK3CA PIK3R1 (human) = PIK3CA PIK3R1 (human) (UniProt P27986+P42336)
PRKCZ (human) = PRKCZ (human) (UniProt Q05513)

Sequence of LYN (human) (P07948 whole entry, looked up): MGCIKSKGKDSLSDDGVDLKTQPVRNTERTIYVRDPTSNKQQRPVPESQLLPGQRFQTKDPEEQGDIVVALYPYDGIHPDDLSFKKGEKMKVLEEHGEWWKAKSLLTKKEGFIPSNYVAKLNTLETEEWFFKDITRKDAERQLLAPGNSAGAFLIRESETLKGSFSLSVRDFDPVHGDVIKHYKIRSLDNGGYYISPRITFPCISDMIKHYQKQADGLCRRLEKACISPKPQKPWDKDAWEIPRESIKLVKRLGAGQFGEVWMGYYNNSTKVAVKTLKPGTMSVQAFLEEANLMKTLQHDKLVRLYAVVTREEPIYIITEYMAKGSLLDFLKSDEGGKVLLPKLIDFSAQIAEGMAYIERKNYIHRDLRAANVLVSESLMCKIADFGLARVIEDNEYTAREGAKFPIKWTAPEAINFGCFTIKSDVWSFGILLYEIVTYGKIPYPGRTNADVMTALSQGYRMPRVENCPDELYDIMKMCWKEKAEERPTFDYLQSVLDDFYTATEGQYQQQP
Sequence of PTK6 (human) (Q13882 whole entry, looked up): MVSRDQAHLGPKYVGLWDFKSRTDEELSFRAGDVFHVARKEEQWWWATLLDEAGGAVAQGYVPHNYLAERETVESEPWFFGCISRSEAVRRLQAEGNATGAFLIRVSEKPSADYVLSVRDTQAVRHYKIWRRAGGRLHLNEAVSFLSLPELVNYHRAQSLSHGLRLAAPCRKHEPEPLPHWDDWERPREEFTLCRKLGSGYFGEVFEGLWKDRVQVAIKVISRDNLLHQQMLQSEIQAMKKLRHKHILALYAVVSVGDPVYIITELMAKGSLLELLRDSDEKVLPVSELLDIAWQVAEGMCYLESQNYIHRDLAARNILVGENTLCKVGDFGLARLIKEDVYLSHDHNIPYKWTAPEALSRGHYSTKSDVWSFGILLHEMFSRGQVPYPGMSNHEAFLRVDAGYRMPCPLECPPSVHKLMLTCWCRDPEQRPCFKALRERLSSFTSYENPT
Sequence of CSNK1D (human) (P48730 whole entry, looked up): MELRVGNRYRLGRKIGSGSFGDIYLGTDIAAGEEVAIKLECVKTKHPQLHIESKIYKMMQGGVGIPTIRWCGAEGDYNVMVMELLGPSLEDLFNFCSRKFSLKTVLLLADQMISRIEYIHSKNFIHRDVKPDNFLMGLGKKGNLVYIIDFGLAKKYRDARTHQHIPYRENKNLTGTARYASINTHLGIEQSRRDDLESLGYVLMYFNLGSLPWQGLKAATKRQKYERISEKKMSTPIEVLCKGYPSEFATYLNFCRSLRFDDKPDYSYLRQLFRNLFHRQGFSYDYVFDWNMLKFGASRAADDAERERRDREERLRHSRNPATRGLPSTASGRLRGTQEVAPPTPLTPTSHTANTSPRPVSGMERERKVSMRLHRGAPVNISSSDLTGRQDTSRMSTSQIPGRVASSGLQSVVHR
Sequence of LTK (human) (P29376 whole entry, looked up): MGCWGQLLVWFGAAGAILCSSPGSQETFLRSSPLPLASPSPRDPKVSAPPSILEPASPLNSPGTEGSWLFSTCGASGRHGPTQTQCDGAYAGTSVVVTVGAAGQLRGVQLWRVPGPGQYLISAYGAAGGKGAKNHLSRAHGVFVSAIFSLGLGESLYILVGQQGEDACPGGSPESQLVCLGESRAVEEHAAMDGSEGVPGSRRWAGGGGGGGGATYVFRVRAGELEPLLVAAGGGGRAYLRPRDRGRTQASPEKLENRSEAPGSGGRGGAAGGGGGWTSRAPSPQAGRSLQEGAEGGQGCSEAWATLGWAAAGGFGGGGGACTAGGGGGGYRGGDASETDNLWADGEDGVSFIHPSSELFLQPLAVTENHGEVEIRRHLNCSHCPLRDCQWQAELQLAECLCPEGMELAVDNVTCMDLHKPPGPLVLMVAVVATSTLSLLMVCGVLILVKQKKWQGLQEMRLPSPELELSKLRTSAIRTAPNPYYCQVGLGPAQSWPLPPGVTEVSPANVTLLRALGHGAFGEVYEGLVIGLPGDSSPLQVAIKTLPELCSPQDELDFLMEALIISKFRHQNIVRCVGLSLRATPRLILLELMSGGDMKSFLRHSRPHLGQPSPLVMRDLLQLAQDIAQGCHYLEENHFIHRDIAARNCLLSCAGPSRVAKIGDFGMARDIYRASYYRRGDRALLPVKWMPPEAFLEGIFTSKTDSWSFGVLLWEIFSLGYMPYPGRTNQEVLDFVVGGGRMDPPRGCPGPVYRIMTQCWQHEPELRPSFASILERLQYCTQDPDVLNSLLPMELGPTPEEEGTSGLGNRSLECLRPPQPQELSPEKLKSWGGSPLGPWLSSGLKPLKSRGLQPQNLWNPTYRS
Sequence of JAK2 JH1 JH2 (human) (O60674 whole entry, looked up): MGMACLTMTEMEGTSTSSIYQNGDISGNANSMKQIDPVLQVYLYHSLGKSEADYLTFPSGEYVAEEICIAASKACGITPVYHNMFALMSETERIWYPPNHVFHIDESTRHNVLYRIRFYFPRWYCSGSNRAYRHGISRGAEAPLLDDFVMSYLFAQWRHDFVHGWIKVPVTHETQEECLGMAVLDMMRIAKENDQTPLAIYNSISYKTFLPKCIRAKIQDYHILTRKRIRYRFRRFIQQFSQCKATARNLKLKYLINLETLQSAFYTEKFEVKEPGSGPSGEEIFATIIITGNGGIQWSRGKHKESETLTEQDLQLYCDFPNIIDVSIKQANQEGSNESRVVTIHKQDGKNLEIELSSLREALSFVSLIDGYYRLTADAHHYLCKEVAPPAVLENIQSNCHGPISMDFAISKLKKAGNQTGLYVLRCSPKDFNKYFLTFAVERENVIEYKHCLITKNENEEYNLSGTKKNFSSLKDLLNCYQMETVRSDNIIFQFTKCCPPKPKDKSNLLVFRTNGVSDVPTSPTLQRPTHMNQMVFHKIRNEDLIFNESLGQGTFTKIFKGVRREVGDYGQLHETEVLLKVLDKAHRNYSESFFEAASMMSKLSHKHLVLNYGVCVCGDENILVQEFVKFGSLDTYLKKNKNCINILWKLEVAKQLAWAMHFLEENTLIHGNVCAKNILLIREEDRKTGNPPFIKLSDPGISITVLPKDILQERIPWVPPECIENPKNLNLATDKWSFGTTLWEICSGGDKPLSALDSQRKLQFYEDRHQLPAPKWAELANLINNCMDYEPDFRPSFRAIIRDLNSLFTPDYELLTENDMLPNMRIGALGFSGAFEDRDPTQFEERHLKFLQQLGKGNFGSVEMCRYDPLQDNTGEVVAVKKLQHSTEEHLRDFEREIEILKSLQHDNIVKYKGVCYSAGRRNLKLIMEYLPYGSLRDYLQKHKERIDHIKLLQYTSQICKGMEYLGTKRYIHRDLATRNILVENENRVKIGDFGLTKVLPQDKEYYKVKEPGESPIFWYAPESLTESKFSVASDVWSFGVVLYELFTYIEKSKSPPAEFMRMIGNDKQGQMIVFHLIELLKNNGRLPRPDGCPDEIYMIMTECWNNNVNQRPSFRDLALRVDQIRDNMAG
Sequence of DDR2 (human) (Q16832 whole entry, looked up): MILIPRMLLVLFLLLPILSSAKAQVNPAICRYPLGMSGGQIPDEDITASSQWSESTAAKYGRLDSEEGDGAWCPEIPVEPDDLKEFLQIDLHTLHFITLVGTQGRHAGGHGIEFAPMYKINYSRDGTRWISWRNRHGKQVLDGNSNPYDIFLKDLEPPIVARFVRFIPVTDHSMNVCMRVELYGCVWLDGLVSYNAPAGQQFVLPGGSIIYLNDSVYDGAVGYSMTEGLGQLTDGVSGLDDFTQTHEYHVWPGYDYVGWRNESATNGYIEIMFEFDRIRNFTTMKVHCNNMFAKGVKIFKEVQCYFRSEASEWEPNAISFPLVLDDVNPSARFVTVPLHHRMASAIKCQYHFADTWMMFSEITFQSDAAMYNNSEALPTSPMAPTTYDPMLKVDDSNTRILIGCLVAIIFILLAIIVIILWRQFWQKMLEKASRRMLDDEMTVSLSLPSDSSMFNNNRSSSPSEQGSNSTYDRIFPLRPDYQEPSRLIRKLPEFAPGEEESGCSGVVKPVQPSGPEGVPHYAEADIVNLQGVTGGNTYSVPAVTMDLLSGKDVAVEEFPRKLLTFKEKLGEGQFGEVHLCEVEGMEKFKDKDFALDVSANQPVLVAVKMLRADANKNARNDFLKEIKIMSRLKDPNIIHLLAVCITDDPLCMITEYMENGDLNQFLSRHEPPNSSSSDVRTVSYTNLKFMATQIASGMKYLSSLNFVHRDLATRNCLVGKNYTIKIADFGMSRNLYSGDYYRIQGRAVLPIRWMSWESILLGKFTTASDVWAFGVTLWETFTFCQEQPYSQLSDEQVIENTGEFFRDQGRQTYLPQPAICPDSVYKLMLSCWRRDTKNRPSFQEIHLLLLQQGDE
Sequence of RPS6KA5 KD1 KD2 (human) (O75582 whole entry, looked up): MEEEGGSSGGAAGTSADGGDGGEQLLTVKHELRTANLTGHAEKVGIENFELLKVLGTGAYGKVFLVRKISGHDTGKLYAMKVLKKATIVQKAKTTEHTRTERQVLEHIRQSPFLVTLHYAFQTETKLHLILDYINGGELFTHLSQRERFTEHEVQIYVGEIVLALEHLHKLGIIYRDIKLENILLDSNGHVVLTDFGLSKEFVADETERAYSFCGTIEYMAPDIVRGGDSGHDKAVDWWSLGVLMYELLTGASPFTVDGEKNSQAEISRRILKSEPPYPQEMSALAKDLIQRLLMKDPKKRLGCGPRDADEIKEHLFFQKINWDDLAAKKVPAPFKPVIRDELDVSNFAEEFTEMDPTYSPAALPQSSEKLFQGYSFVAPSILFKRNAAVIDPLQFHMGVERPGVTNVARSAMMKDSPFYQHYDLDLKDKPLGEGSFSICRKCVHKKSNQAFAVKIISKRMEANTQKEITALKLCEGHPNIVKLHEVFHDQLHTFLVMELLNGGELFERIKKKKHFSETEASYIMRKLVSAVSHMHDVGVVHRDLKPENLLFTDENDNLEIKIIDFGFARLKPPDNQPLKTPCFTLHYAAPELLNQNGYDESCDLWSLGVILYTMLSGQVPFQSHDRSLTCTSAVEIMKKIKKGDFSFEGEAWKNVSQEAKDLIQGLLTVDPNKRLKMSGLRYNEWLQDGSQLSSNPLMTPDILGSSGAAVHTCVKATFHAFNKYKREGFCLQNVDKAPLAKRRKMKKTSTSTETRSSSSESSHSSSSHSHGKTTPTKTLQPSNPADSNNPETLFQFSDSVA

## COc1cc2c(Oc3ccc4[nH]c(C)cc4c3F)ncnc2cc1OCCCN1CCCC1
SYK (human); compound 0.02 µM
  inhibition: -4.7%
SYK (human); compound 0.2 µM
  inhibition: -3.5%
NEK4 (human); compound 0.02 µM
  inhibition: -3.8%
NEK4 (human); compound 0.2 µM
  inhibition: -3.9%
LYN (human); compound 0.02 µM
  inhibition: 13.8% and 15.6%
LYN (human); compound 0.2 µM
  inhibition: 53.8% and 53.9%
FLT4 (human); compound 0.02 µM
  inhibition: 73.8%
FLT4 (human); compound 0.2 µM
  inhibition: 97%
CDK3 (human); compound 0.02 µM
  inhibition: -3.3%
CDK3 (human); compound 0.2 µM
  inhibition: -1.1%
DCLK2 (human); compound 0.02 µM
  inhibition: -1.8%
DCLK2 (human); compound 0.2 µM
  inhibition: -0.5%
LTK (human); compound 0.02 µM
  inhibition: 4.7%
LTK (human); compound 0.2 µM
  inhibition: 5.6%
PBK (human); compound 0.02 µM
  inhibition: 0.1%
PBK (human); compound 0.2 µM
  inhibition: -6.1%
CSNK1D (human); compound 0.02 µM
  inhibition: -3.7% and -4.3%
CSNK1D (human); compound 0.2 µM
  inhibition: -3.5% and -3.9%
TXK (human); compound 0.02 µM
  inhibition: -0.7%
TXK (human); compound 0.2 µM
  inhibition: -0.1%
SIK2 (human); compound 0.02 µM
  inhibition: 3.7%
SIK2 (human); compound 0.2 µM
  inhibition: 16.5%
NEK2 (human); compound 0.02 µM
  inhibition: 6.3%
NEK2 (human); compound 0.2 µM
  inhibition: 5.3%
JAK2 JH1 JH2 (human); compound 0.02 µM
  inhibition: 4.5%
JAK2 JH1 JH2 (human); compound 0.2 µM
  inhibition: 4.5%
CLK2 (human); compound 0.02 µM
  inhibition: 0.3%
CLK2 (human); compound 0.2 µM
  inhibition: 1.1%
HIPK1 (human); compound 0.02 µM
  inhibition: -5.7%
HIPK1 (human); compound 0.2 µM
  inhibition: -1%
CSNK1G2 (human); compound 0.02 µM
  inhibition: -0.7%
CSNK1G2 (human); compound 0.2 µM
  inhibition: -2.1%
CSF1R (human); compound 0.02 µM
  inhibition: 18.4%
CSF1R (human); compound 0.2 µM
  inhibition: 36.8%
CSNK2A2 (human); compound 0.02 µM
  inhibition: -0.7%
CSNK2A2 (human); compound 0.2 µM
  inhibition: -1.2%
CDK6 (human); compound 0.02 µM
  inhibition: 11.4%
CDK6 (human); compound 0.2 µM
  inhibition: 4.1%
SGK3 (human); compound 0.02 µM
  inhibition: 8.5%
SGK3 (human); compound 0.2 µM
  inhibition: 1.9%
IKBKE (human); compound 0.02 µM
  inhibition: -6.2%
IKBKE (human); compound 0.2 µM
  inhibition: -5.1%
PTK2 (human); compound 0.02 µM
  inhibition: -5.3%
PTK2 (human); compound 0.2 µM
  inhibition: -4.2%
DDR2 (human); compound 0.02 µM
  inhibition: 26.6%
DDR2 (human); compound 0.2 µM
  inhibition: 82.1%
TNK2 (human); compound 0.02 µM
  inhibition: -6.7%
TNK2 (human); compound 0.2 µM
  inhibition: -5.4%
EPHA7 (human); compound 0.02 µM
  inhibition: -2.4%
EPHA7 (human); compound 0.2 µM
  inhibition: 23.5%
CSNK2A1 (human); compound 0.02 µM
  inhibition: -0.1%
CSNK2A1 (human); compound 0.2 µM
  inhibition: -0.5%
MUSK (human); compound 0.02 µM
  inhibition: -4.8%
MUSK (human); compound 0.2 µM
  inhibition: -1.6%
HIPK4 (human); compound 0.02 µM
  inhibition: -0.9%
HIPK4 (human); compound 0.2 µM
  inhibition: -6.5%
PTK6 (human)
  Ki: 11.8 nM
PTK6 (human); compound 0.02 µM
  inhibition: 44.1%
PTK6 (human); compound 0.2 µM
  inhibition: 92.1%
NEK9 (human); compound 0.02 µM
  inhibition: -3.3%
NEK9 (human); compound 0.2 µM
  inhibition: -2.9%
RPS6KA4 KD1 KD2 (human); compound 0.02 µM
  inhibition: -4.9%
RPS6KA4 KD1 KD2 (human); compound 0.2 µM
  inhibition: 2.6%
RPS6KA5 KD1 KD2 (human); compound 0.02 µM
  inhibition: -4.9%
RPS6KA5 KD1 KD2 (human); compound 0.2 µM
  inhibition: -7.3%
PIK3CA PIK3R1 (human); compound 0.02 µM
  inhibition: 26.6%
PIK3CA PIK3R1 (human); compound 0.2 µM
  inhibition: 34.9%
PRKCZ (human); compound 0.02 µM
  inhibition: 10.1%
PRKCZ (human); compound 0.2 µM
  inhibition: 1.5%
